According to patent US20050075375A1 (priority 2003, published 2005):
Read-outs that look alike come from different tables or passages of the source.

Test system: monocistronic NK5.1 HCV replicon in Huh7 cells
Test: HCV replicon assay, monocistronic replicon cell line
Assay type: cell-based, hepatitis C virus
Conditions: Hepatitis C virus, read-out: Mono EC50 Median
In short: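 Huh7 cells carrying the monocistronic NK5.1 replicon, seeded 24 h before dosing, were exposed to six-point half-log compound series (0.6% DMSO) for 3 days at 37 °C. Replicon RNA was quantified by TaqMan RT-PCR, normalised to GAPDH and compared with DMSO controls to derive EC50.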

[1] = Huh-7, 72 h, Table 1, monocistronic replicon in Huh7 cells, 3 days incubation, HCV RNA/GAPDH RNA by TaqMan RT-PCR
[2] = Huh-7, 72 h, table T3 (compounds 471-640), monocistronic replicon in Huh7 cells, 3 days incubation, HCV RNA/GAPDH RNA by TaqMan RT-PCR
[3] = Huh-7, monocistronic NK5.1 HCV replicon in Huh7 cells, median value

Structure (SMILES) | EC50 [1] [µM] | EC50 [2] [µM] | EC50 [3] [µM] | other results
COc1ccc(O)c(-c2ccn(Cc3ncc(C)c(OC)c3C)n2)c1 [Compound 101, 4-Methoxy-2-[1-(4-methoxy-3,5-dimethyl-pyridin-2-ylmethyl)-1H-pyrazol-3-yl]-phenol] | 14.6 | – | – | –
Cc1cc(-c2c(O)ccc3ccccc23)n(-c2ccccc2C(F)(F)F)n1 [Compound 6, 1-[5-Methyl-2-(2-trifluoromethyl-phenyl)-2H-pyrazol-3-yl]-naphthalen-2-ol] | 13 | – | – | –
COc1ccc(-c2nc(-c3ccc(C(F)(F)F)cn3)n[nH]2)c(O)c1 [Compound 517, 5-Methoxy-2-[5-(5-trifluoromethyl-pyridin-2-yl)-2H-[1,2,4]triazol-3-yl]-phenol] | – | > 19 | – | –
Fc1ccccc1-c1nnc(-c2ccccc2)o1 [Compound 332, 2-(2-Fluoro-phenyl)-5-phenyl-[1,3,4]oxadiazole] | – | – | > 32 | –
Oc1ccccc1-c1nnc(-c2ccccc2)o1 [Compound 318, 2-(5-Phenyl-[1,3,4]oxadiazol-2-yl)-phenol] | – | – | 14 | –
COc1ccc(O)c(-c2nc(-c3ccc(C(F)(F)F)cn3)n[nH]2)c1 [Compound 510, 4-Methoxy-2-[5-(5-trifluoromethyl-pyridin-2-yl)-2H-[1,2,4]triazol-3-yl]-phenol] | – | > 19 | – | –
COc1ccc(-c2nc(-c3ncccc3C(F)(F)F)n[nH]2)c(O)c1 [Compound 541, 5-Methoxy-2-[5-(3-trifluoromethyl-pyridin-2-yl)-2H-[1,2,4]triazol-3-yl]-phenol] | – | > 19 | – | –
Oc1ccc2ccccc2c1-c1nc(-c2ncccc2C(F)(F)F)n[nH]1 [Compound 549, 1-[5-(3-trifluoromethyl-pyridin-2-yl)-2H-[1,2,4]triazol-3-yl]-naphthalen-2-ol] | – | > 19 | – | –
O=[N+]([O-])c1cccc(-c2nc(-c3ncccc3Br)n[nH]2)c1 [Compound 497, 3-Bromo-2-[5-(3-nitro-phenyl)-1H-[1,2,4]triazol-3-yl]-pyridine] | – | > 32 | – | –
COc1ccc(O)c(-c2nc(-c3ccc(NC(=O)OC(C)(C)C)cn3)no2)c1 [Compound 239, {6-[5-(2-Hydroxy-5-methoxy-phenyl)-[1,2,4]oxadiazol-3-yl]-pyridin-3-yl}-carbamic acid tert-butyl ester] | 2.1 | – | 2.1 | –
CN(C)c1ccc(-c2nc(-c3nccc4ccccc34)no2)c(O)c1 [Compound 201, 5-Dimethylamino-2-(3-isoquinolin-1-yl-[1,2,4]oxadiazol-5-yl)-phenol] | > 32 | – | – | –
CCOC(=O)c1cc(-c2ccc(OC)cc2)nn1-c1ncccc1C(F)(F)F [Compound 56, 5-(4-Methoxy-phenyl)-2-(3-trifluoromethyl-pyridin-2-yl)-2H-pyrazole-3-carboxylic acid ethyl ester] | > 32 | – | – | –
Cc1ccc(O)c(-c2nc(-c3ccc(N)cn3)no2)c1 [Compound 255, 2-[3-(5-Amino-pyridin-2-yl)-[1,2,4]oxadiazol-5-yl]-4-methyl-phenol] | – | – | 24 | –
Cc1cc(O)c(-c2cc(C)n(-c3ccc(Cl)cc3)n2)cc1C [Compound 22, 2-[1-(4-Chloro-phenyl)-5-methyl-1H-pyrazol-3-yl]-4,5-dimethyl-phenol] | > 19 | – | – | –
COc1ccc2ccccc2c1-c1nc(-c2nccc3ccccc23)no1 [Compound 203, 1-[5-(2-Methoxy-naphthalen-1-yl)-[1,2,4]oxadiazol-3-yl]-isoquinoline] | 23 | – | – | –
COc1ccc(-c2ccnn2-c2ncccc2[N+](=O)[O-])c(F)c1 [Compound 46, 2-[5-(2-Fluoro-4-methoxy-phenyl)-pyrazol-1-yl]-3-nitro-pyridine] | 6 | – | – | –
Cc1cc(O)c(-c2cc(C)n(-c3ccccc3F)n2)cc1C [Compound 15, 2-[1-(2-Fluoro-phenyl)-5-methyl-1H-pyrazol-3-yl]-4,5-dimethyl-phenol] | > 19 | – | – | –
Cn1nc(-c2ccccn2)nc1-c1ccccc1O [Compound 602, 2-(2-methyl-5-pyridin-2-yl-2H-[1,2,4]triazol-3-yl)-phenol] | – | > 32 | – | –
Oc1ccc(F)cc1-c1nc(-c2ccc(C(F)(F)F)cn2)n[nH]1 [Compound 509, 4-Fluoro-2-[5-(5-trifluoromethyl-pyridin-2-yl)-2H-[1,2,4]triazol-3-yl]-phenol] | – | > 19 | – | –
O=[N+]([O-])c1ccc(O)c(-c2nc(-c3nccc4ccccc34)n[nH]2)c1 [Compound 368, 4-Nitro-2-(5-isoquinolin-1-yl-2H-[1,2,4]triazol-3-yl)-phenol] | – | – | > 32 | –
Oc1ccc(Br)cc1-c1nc(-c2nccc3ccccc23)n[nH]1 [Compound 374, 4-Bromo-2-(5-isoquinolin-1-yl-2H-[1,2,4]triazol-3-yl)-phenol] | – | – | > 19 | –
c1ccc(COc2ccc3ccccc3c2-c2ccn(-c3ccccn3)n2)cc1 [Compound 87, 2-[3-(2-Benzyloxy-naphthalen-1-yl)-pyrazol-1-yl]-pyridine] | > 32 | – | – | –

Structure (SMILES) | EC50 [1] [µM] | EC50 [2] [µM] | EC50 [3] [µM] | other results
Brc1cccnc1-c1n[nH]c(-c2cccc3ccccc23)n1 [Compound 483, 3-Bromo-2-(5-naphthalen-1-yl-1H-[1,2,4]triazol-3-yl)-pyridine] | – | > 32 | – | –
COc1ccccc1-c1nnc(-c2ccco2)o1 [Compound 330, 2-Furan-2-yl-5-(2-methoxy-phenyl)-[1,3,4]oxadiazole] | – | – | > 32 | –
Oc1ccc(O)c(-c2nc(-c3ccccn3)no2)c1 [Compound 150, 2-(3-Pyridin-2-yl-[1,2,4]oxadiazol-5-yl)-benzene-1,4-diol] | 16 | – | – | –
Cc1cccnc1-c1n[nH]c(-c2cccc3ccccc23)n1 [Compound 440, 3-Methyl-2-(5-naphthalen-1-yl-1H-[1,2,4]triazol-3-yl)-pyridine] | – | – | 5.6 | –
Cc1ccc(O)c(-c2nc(-c3nccc4ccccc34)n[nH]2)c1 [Compound 375, 4-Methyl-2-(5-isoquinolin-1-yl-2H-[1,2,4]triazol-3-yl)-phenol] | – | – | > 19 | –
Oc1ccc(O)c(-c2nc(-c3ncccn3)n[nH]2)c1 [Compound 572, 4-Hydroxy-2-(5-pyrimidin-2-yl-2H-[1,2,4]triazol-3-yl)-phenol] | – | > 32 | – | –
Cc1cc(-c2c(O)ccc3ccccc23)nn1-c1ncccc1C(F)(F)F [Compound 26, 1-[5-Methyl-1-(3-trifluoromethyl-pyridin-2-yl)-1H-pyrazol-3-yl]-naphthalen-2-ol] | > 19 | – | – | –
CC1(C)CCN2CCC(C)(C)c3c(O)c(-c4nc(-c5cnccc5C(F)(F)F)n[nH]4)cc1c32 [Compound 425, 1,1,7,7-Tetramethyl-9-[5-(4-trifluoromethyl-pyridin-3-yl)-2H-[1,2,4]triazol-3-yl]-2,3,6,7-tetrahydro-1H,5H-pyrido[3,2,1-ij]quinolin-8-ol] | – | – | 2.9 | –
Cc1cccc(-c2n[nH]c(-c3ccccc3F)n2)n1 [Compound 465, 2-[5-(2-Fluoro-phenyl)-1H-[1,2,4]triazol-3-yl]-6-methyl-pyridine] | – | – | > 32 | –
COc1cccc(-c2nc(-c3ncccc3Br)n[nH]2)c1O [Compound 496, 2-[5-(3-Bromo-pyridin-2-yl)-2H-[1,2,4]triazol-3-yl]-6-Methoxy-phenol] | – | > 32 | – | –
COc1ccc(OCc2ccccc2)c(-c2ccn(Cc3nccc(OC)c3OC)n2)c1 [Compound 103, 2-[3-(2-Benzyloxy-5-methoxy-phenyl)-pyrazol-1-ylmethyl]-3,4-dimethoxy-pyridine] | > 32 | – | – | –
Cc1cc(-c2c(O)ccc3ccccc23)nn1-c1ccc(Cl)cc1 [Compound 18, 1-[1-(4-Chloro-phenyl)-5-methyl-1H-pyrazol-3-yl]-naphthalen-2-ol] | 18 | – | – | –
COc1ccc(F)c(-c2nc(-c3ccccn3)n[nH]2)c1 [Compound 388, 2-[5-(2-Fluoro-5-methoxy-phenyl)-1H-[1,2,4]triazol-3-yl]-pyridine] | – | – | > 19 | –
COc1ccc(O)c(-c2ccn(Cc3nccc(OC)c3OC)n2)c1 [Compound 105, 2-[1-(3,4-Dimethoxy-pyridin-2-ylmethyl)-1H-pyrazol-3-yl]-4-methoxy-phenol] | > 32 | – | – | –
Cc1cccnc1-c1noc(-c2cccc(C(C)C)c2O)n1 [Compound 300, 2-Isopropyl-6-[3-(3-methyl-pyridin-2-yl)-[1,2,4]oxadiazol-5-yl]-phenol] | – | – | 1.5 | –
Cn1nc(-c2ncccc2C(F)(F)F)nc1-c1cc([N+](=O)[O-])ccc1O [Compound 640, 4-Nitro-2-[2-methyl-5-(3-trifluoromethyl-pyridin-2-yl)-2H-[1,2,4]triazol-3-yl]-phenol] | – | > 32 | – | –
Fc1cc(-c2nc(-c3cnccc3C(F)(F)F)n[nH]2)ccc1-c1ccccc1 [Compound 418, 3-[5-(2-Fluoro-biphenyl-4-yl)-1H-[1,2,4]triazol-3-yl]-4-trifluoromethyl-pyridine] | – | – | 17 | –
O=[N+]([O-])c1ccc(O)c(-c2nc(-c3ncccc3C(F)(F)F)n[nH]2)c1 [Compound 532, 4-Nitro-2-[5-(3-trifluoromethyl-pyridin-2-yl)-2H-[1,2,4]triazol-3-yl]-phenol] | – | > 19 | – | –
O=[N+]([O-])c1cccnc1-c1noc(-c2cc(O)ccc2O)n1 [Compound 171, 2-[3-(3-Nitro-pyridin-2-yl)-[1,2,4]oxadiazol-5-yl]-benzene-1,4-diol] | 5.4 | – | – | –
O=[N+]([O-])c1cccc(-c2nc(-c3ncccc3[N+](=O)[O-])no2)c1 [Compound 156, 3-Nitro-2-[5-(3-nitro-phenyl)-[1,2,4]oxadiazol-3-yl]-pyridine] | – | – | – | EC50 (Huh-7, 72 h): > 19 µM
Oc1ccc(Cl)cc1-c1nc(-c2cnccn2)n[nH]1 [Compound 579, 4-Chloro-2-(5-pyrazin-2-yl-2H-[1,2,4]triazol-3-yl)-phenol] | – | 5.8 | – | –
Oc1ccccc1-c1nc(-c2ncccc2C(F)(F)F)n[nH]1 [Compound 542, 2-[5-(3-trifluoromethyl-pyridin-2-yl)-2H-[1,2,4]triazol-3-yl]-phenol] | – | > 19 | – | –
